From patent US10251854B2, “S-(carboxymethyl)-cysteine pharmaceutical compound and preparation method and use thereof” (Guangzhou Baiyunshan Pharmaceutical Holdings Co., Ltd. …, priority 2013, dated 2019)
Counter-ions that a name gives are not always drawn. Like-named read-outs stand apart in the source and are kept apart here.

Columns and labels:
[1] = Storage at room temperature (character, moisture absorption); type: physicochemical; settings: stored for a period of time at room temperature
From the text: The S-(carboxymethyl)-L-cysteine ammonium salt monohydrate crystals of the present invention have a relatively uniform particle size distribution.

[2] = Water solubility; type: physicochemical
From the text: (§1) In a preferred embodiment of the present invention, the S-(carboxymethyl)-L-cysteine ammonium salt monohydrate crystalline compound is a soluble double salt formed by the acidity of the carboxyl thereof and the alkalinity of the aqueous ammonia. […] In addition, the medicine, after being absorbed by the body, can be hydrolysed into S-(carboxymethyl)-L-cysteine and ammonium chloride with the effect of gastric acid, which can not only reduce the irritation of S-(carboxymethyl)-L-cysteine to the gastrointestinal tract, but also neutralize the excessive gastric acid. After the S-(carboxymethyl)-L-cysteine ammonium salt monohydrate crystal is hydrolysed, the S-(carboxymethyl)-L-cysteine in the body continues giving play to pharmacological effects thereof. At the same time, the ammonium chloride obtained from hydrolysis has chemical irritation to the mucous membrane, which can reflectively increase the amount of sputum to easily remove the sputum, and is conducive to removing a small amount of sputum which is difficult to be coughed out, thereby enhancing the sputum-resolving effect of the S-(carboxymethyl)-L-cysteine, and improving the curative effect. The S-(carboxymethyl)-L-cysteine ammonium salt is safe, has small side effect, and can be used for patients suffering from chronic obstructive pulmonary disease and the like to take for a long time.

[3] = Solubility in several solvents (25° C.); type: physicochemical
[4] = system: rat COPD model; assay: Rat COPD model: inflammation indexes (TNF-α, IL-8, IL-6); type: in vivo; settings: x ± SD
Protocol: (§2) 1.1 Preparation of Rat COPD Models
(§3) A method of establishing a rat COPD model by fumigation plus endotoxin lipopolysaccharide (LPS) endotracheal drop, which is commonly used at home and abroad at present was adopted. The period is 3 months (90 days). Specific method: on the 1st, the 15th, the 29th, the 43rd, the 57th, the 71st and the 85th days of the test, the rats were anesthetized with ethylether, the roots of tongues of the rats were pulled out, and LPS (200 ug/200 ul) was dripped through tracheas by bend gavage needle heads. The rats of the normal group were dripped with physiological saline of equal amount by the same method, and weren't fumigated. The rats of the other five groups were fumigated in a self-made fumigation bin. One side of the fumigation bin was externally connected with a negative pressure pump, and the top thereof was connected with a port for inserting cigarettes. With the negative press pump turned on, the cigarettes were lit, and the smoke of the cigarettes was absorbed into the fumigation bin. In order to prevent the animals from death caused by anoxia, 12 cigarettes were lit every time, and the lid of the fumigation bin was opened 20 min after fumigation for letting in fresh air. The operation was performed 1 h/3 times/day, with the LPS (200 ug/200 ul) being dripped through the tracheas by bend gavage needle heads.
(§4) 1.2 Pharmacological Intervention
(§5) The test was 90 days long. The pharmacological intervention was started from the 15th day, the rats of the positive group were perfused with carbocisteine, the rats of the low, medium and high test groups were perfused with different doses of test medicines, and the rats of the model group and the normal group were perfused with physiological saline of equal amount.
(§6) 1.3 Indexes Determination
(§7) Blood was taken from the orbit of each rat on the second day after the test was over, serum was separated, a complete stomach was cut and washed, lung tissue was preserved, the stomach and the right upper lung were left for pathobiology test, after the rest of the lung was subjected to lung tissue homogenate, the indexes of oxidization and antioxidation, the contents of lipid peroxide (LPO), malondialdehyde (MDA) and reduced glutathione (GSH), the activity of superoxide dismutase (SOD) and the concentration of inflammatory medium TNF-α, IL-8 and IL-6 were detected.

[5] = pH value of 1% solution/suspension by pH meter; type: physicochemical; settings: n=6
From the text: as §1

[6] = system: rat COPD model; assay: Rat COPD model: antioxidation indexes (GSH, SOD); type: in vivo; settings: x ± SD
Protocol: as §2, §3, §4, §5, §6, §7

[7] = system: rat COPD model; assay: Rat COPD model: oxidization indexes (LPO, MDA); type: in vivo; settings: x ± SD
Protocol: as §2, §3, §4, §5, §6, §7

[8] = system: patients suffering from COPD; settings: 142 patients; 1500 mg/d, 12 months; cited from earlier work
[9] = system: patients suffering from COPD; settings: 1500 mg/d, 12 months; cited from earlier work
[10] = system: gastric mucosa of rats; assay: Rat COPD model: pathological changes of stomachs; type: in vivo; settings: perfused from the 15th day of the 90 day test
Protocol: A method of establishing a rat COPD model by fumigation plus endotoxin lipopolysaccharide (LPS) endotracheal drop, which is commonly used at home and abroad at present was adopted. The period is 3 months (90 days). Specific method: on the 1st, the 15th, the 29th, the 43rd, the 57th, the 71st and the 85th days of the test, the rats were anesthetized with ethylether, the roots of tongues of the rats were pulled out, and LPS (200 ug/200 ul) was dripped through tracheas by bend gavage needle heads. The rats of the normal group were dripped with physiological saline of equal amount by the same method, and weren't fumigated. The rats of the other five groups were fumigated in a self-made fumigation bin. […]
as §7

[11] = system: chronic obstructive pulmonary disease; settings: 1500 mg/d, 12 months; cited from earlier work

N[C@@H](CSCC(=O)O)C(=O)O [L-ammonium, S-(carboxymethyl)-L-cysteine ammonium salt monohydrate]
absorption of moisture [1]: insusceptible to absorption of moisture
character changes after storage [1]: no obvious character changes
water solubility ([2]; listed as S-(carboxymethyl)-L-cysteine ammonium salt monohydrate crystal, ammonium salt monohydrate): extremely easily soluble in water
Solubility ([3]; Absolute ethyl alcohol): Very slightly soluble
Solubility ([3]; Acetone): Very slightly soluble
Solubility ([3]; Acetonitrile): Very slightly soluble
Solubility ([3]; Isopropanol): Very slightly soluble
Solubility ([3]; Methanol): Very slightly soluble
Solubility ([3]; N,N-Dimethylformamide): Very slightly soluble
IL-6 Lung tissue ([4]; high dose group): 9.28 ± 4.49 pg/mL
IL-6 Serum ([4]; high dose group): 5.83 ± 1.51 pg/mL
IL-8 Lung tissue ([4]; high dose group): 8.17 ± 1.06 pg/mL
IL-8 Serum ([4]; high dose group): 5.36 ± 1.51 pg/mL
TNF-α Lung tissue ([4]; high dose group): 15.15 ± 4.20 pg/mL
TNF-α Serum ([4]; high dose group): 13.02 ± 5.32 pg/mL
IL-6 Lung tissue ([4]; low dose group): 14.72 ± 5.51 pg/mL
IL-6 Serum ([4]; low dose group): 7.02 ± 3.30 pg/mL
IL-8 Lung tissue ([4]; low dose group): 9.97 ± 1.24 pg/mL
IL-8 Serum ([4]; low dose group): 7.90 ± 2.16 pg/mL
TNF-α Lung tissue ([4]; low dose group): 20.60 ± 9.60 pg/mL
TNF-α Serum ([4]; low dose group): 17.98 ± 3.94 pg/mL
IL-6 Lung tissue ([4]; medium dose group): 12.91 ± 2.47 pg/mL
IL-6 Serum ([4]; medium dose group): 6.24 ± 2.12 pg/mL
IL-8 Lung tissue ([4]; medium dose group): 8.66 ± 2.54 pg/mL
IL-8 Serum ([4]; medium dose group): 6.30 ± 2.17 pg/mL
TNF-α Lung tissue ([4]; medium dose group): 19.98 ± 8.78 pg/mL
TNF-α Serum ([4]; medium dose group): 15.11 ± 4.38 pg/mL
pH value ([5]; 1% compound, pH meter): 6.60±0.36
GSH Lung tissue ([6]; high dose group): 141.69 ± 28.40 µmol/L
GSH Serum ([6]; high dose group): 232.93 ± 40.49 µmol/L
SOD Lung tissue ([6]; high dose group): 77.56 ± 18.09 U/mL
SOD Serum ([6]; high dose group): 140.69 ± 32.13 U/mL
GSH Lung tissue ([6]; low dose group): 113.59 ± 24.32 µmol/L
GSH Serum ([6]; low dose group): 140.64 ± 19.66 µmol/L
SOD Lung tissue ([6]; low dose group): 60.38 ± 16.04 U/mL
SOD Serum ([6]; low dose group): 90.80 ± 15.13 U/mL
GSH Lung tissue ([6]; medium dose group): 124.19 ± 30.78 µmol/L
GSH Serum ([6]; medium dose group): 175.61 ± 31.11 µmol/L
SOD Lung tissue ([6]; medium dose group): 70.71 ± 11.16 U/mL
SOD Serum ([6]; medium dose group): 102.98 ± 23.26 U/mL
LPO Lung tissue ([7]; high dose group): 13.51 ± 1.66 nmol/mL
LPO Serum ([7]; high dose group): 3.22 ± 0.85 nmol/mL
MDA Lung tissue ([7]; high dose group): 3.68 ± 0.87 µmol/mL
MDA Serum ([7]; high dose group): 5.88 ± 1.26 µmol/mL
LPO Lung tissue ([7]; low dose group): 16.24 ± 2.32 nmol/mL
LPO Serum ([7]; low dose group): 4.75 ± 1.30 nmol/mL
MDA Lung tissue ([7]; low dose group): 4.03 ± 1.27 µmol/mL
MDA Serum ([7]; low dose group): 7.28 ± 1.33 µmol/mL
LPO Lung tissue ([7]; medium dose group): 15.58 ± 2.73 nmol/mL
LPO Serum ([7]; medium dose group): 3.77 ± 1.15 nmol/mL
MDA Lung tissue ([7]; medium dose group): 3.88 ± 0.59 µmol/mL
MDA Serum ([7]; medium dose group): 6.20 ± 3.23 µmol/mL

N[C@@H](CSCC(=O)O)C(=O)O [carbocisteine, S-(carboxymethyl)-L-cysteine, reference compound]
prevention of acute COPD [8]: prevented from acute COPD
water solubility [2]: poorer water solubility
frequency of catching colds and acute exacerbation of COPD [9]: the frequency of catching colds is reduced and the acute exacerbation of COPD is relieved
IL-6 Lung tissue ([4]; positive group): 14.24 ± 6.26 pg/mL
IL-6 Serum ([4]; positive group): 8.13 ± 2.87 pg/mL
IL-8 Lung tissue ([4]; positive group): 10.91 ± 2.30 pg/mL
IL-8 Serum ([4]; positive group): 7.87 ± 3.08 pg/mL
TNF-α Lung tissue ([4]; positive group): 25.17 ± 8.28 pg/mL
TNF-α Serum ([4]; positive group): 18.37 ± 4.55 pg/mL
pH ([5]; 1% suspension per Chinese Pharmacopoeia (2010 Edition)): 2.93±0.20
Pathological changes of stomachs / irritation to the gastrointestinal tract [10]: mild irritations such as mild hyperaemia and edema, and larger inflammatory cell infiltration
Pathological changes of stomachs / irritation to the gastrointestinal tract ([10]; listed as positive group): mild edema and hyperemia and serious inflammatory cell infiltration in the gastric mucosa layers
GSH Lung tissue ([6]; positive group): 107.26 ± 23.52 µmol/L
GSH Serum ([6]; positive group): 132.31 ± 24.04 µmol/L
SOD Lung tissue ([6]; positive group): 62.28 ± 15.12 U/mL
SOD Serum ([6]; positive group): 96.16 ± 23.03 U/mL
LPO Lung tissue ([7]; positive group): 17.44 ± 2.43 nmol/mL
LPO Serum ([7]; positive group): 5.12 ± 1.09 nmol/mL
MDA Lung tissue ([7]; positive group): 4.76 ± 0.70 µmol/mL
MDA Serum ([7]; positive group): 7.34 ± 2.19 µmol/mL
annual acute morbidity per person reduced by [11]: 24.5%
